# According to patent US20060130172A1, “Gene encoding resistance to acetolactate synthase-inhibiting herbicides” (priority 2003, published 2006):
# What was measured:
# [1] = tested on: R11-AMACH smooth pigweed; experiment: Greenhouse screen of ALS-inhibiting herbicides on resistant smooth pigweed biotype; assay type: in vivo, Amaranthus hybridus L.; details: 3 WAT; for Biomass Reduction: compared to untreated plant biomass; for Biomass: plant dry weight; for Visual Control: scale 0-99%
# Description: (§1) Seeds from a smooth pigweed (Aniaranthus hybridus L.) population (R11-AMACH) were collected from a field in southeastern Pennsylvania where extreme ALS-inhibitor herbicide selection pressure was imposed over a several year period within continuous soybean production. R11-AMACH was selected naturally with ALS-inhibiting herbicides representative of the SU, IMI, and TP herbicide chemistries.
# (§2) To establish levels and patterns of ALS resistance, R11-AMACH and an ALS susceptible smooth pigweed biotype (S-AMACH) were screened in the greenhouse with various rates of the ALS-inhibiting herbicides, chlorimuron (SU), thifensulfuron (SU), imazethapyr (IMI), pyrithiobac (POB), and cloransulam-methyl (TP). Rates evaluated were based on a log10 scale that included 0, 1/100×, 1/10×, 1×, 10×, and 100×, where 1× corresponds to the normal use rate in the field. R11-AMACH responded differently to the rate increase as compared to S-AMACH. […] Visual control, height, biomass, and biomass reduction are presented separately for chlorimuron (Table 3), thifensulfuron (Table 4), imazethapyr (Table 5), pyrithiobac (Table 6), and cloransulam (Table 7). Evaluations and measurements were recorded 3 weeks after herbicide treatment (WAT). Visual control was based on a scale of 0-99%, where 0% represents no control and 99% represents complete control. Biomass represents plant dry weights recorded several days after plants were harvested. Biomass reduction was calculated based on the amount of biomass reduced by herbicide treatment compared to the untreated plant biomass.
# [2] = tested on: S-AMACH smooth pigweed; experiment: Greenhouse screen of ALS-inhibiting herbicides on susceptible smooth pigweed biotype; assay type: in vivo, Amaranthus hybridus L.; details: 3 WAT; for Biomass Reduction: compared to untreated plant biomass; for Biomass: plant dry weight; for Visual Control: scale 0-99%
# Description: as §1, §2
# [3] = rate 1/100× (1× = normal use rate in the field)
Structure (SMILES),Height ([1]; rate 1/10×) [cm],Biomass Reduction ([1]; rate 1/10×) [%],Biomass ([1]; rate 1/10×) [g],Visual Control ([1]; rate 1/10×) [%],"Visual Control [1, 3] [%]",Height ([1]; rate 1/100×) [cm],Biomass Reduction ([1]; rate 1/100×) [%],Biomass ([1]; rate 1/100×) [g],Visual Control ([1]; rate 1× (normal use rate)) [%],Height ([1]; rate 1×) [cm],Biomass Reduction ([1]; rate 1×) [%],Biomass ([1]; rate 1×) [g],Height ([1]; rate 10×) [cm],Biomass Reduction ([1]; rate 10×) [%],Biomass ([1]; rate 10×) [g],Visual Control ([1]; rate 10×) [%],Height ([1]; rate 100×) [cm],Biomass Reduction ([1]; rate 100×) [%],Biomass ([1]; rate 100×) [g],Visual Control ([1]; rate 100×) [%],other results
CCOc1nc(F)cc2nc(S(=O)(=O)Nc3c(Cl)cccc3C(=O)OC)nn12 [cloransulammethyl],34.5,24.7,8.16,23,0,47.8,0.5,10.78,16,37.6,30.8,7.49,32.0,40.5,6.44,39,12.2,75.3,2.68,63,Height ([2]; rate 1/10×): 3.6 cm; Biomass Reduction ([2]; rate 1/10×): 97.1%; Biomass ([2]; rate 1/10×): 0.25 g; Visual Control ([2]; rate 1/10×): 91%; Height ([2]; rate 1/100×): 0.7 cm; Biomass Reduction ([2]; rate 1/100×): 99.8%; Biomass ([2]; rate 1/100×): 0.02 g; Visual Control ([2]; rate 1/100×): 97%; Visual Control ([2]; rate 1× (normal use rate)): 96%; Height ([2]; rate 1×): 1.3 cm; Biomass Reduction ([2]; rate 1×): 99.1%; Biomass ([2]; rate 1×): 0.08 g; Height ([2]; rate 10×): 0.0 cm; Biomass Reduction ([2]; rate 10×): 100.0%; Biomass ([2]; rate 10×): 0.00 g; Visual Control ([2]; rate 10×): 99%; Height ([2]; rate 100×): 0.0 cm; Biomass Reduction ([2]; rate 100×): 100.0%; Biomass ([2]; rate 100×): 0.00 g; Visual Control ([2]; rate 100×): 99%
"CCc1cnc(C2=NC(C)(C(C)C)C(=O)N2)c(C(=O)O)c1 (centres unmarked) [imazethapyr, 2-[4,5-dihydro-4-methyl-4-(1-methylethyl)-5-oxo-1H-imidazol-2-yl]-5-ethyl-3-pyridinecarboxylic acid]",28.0,21.1,3.00,9,2,32.8,−8.2,4.11,16,20.3,31.0,2.62,6.8,86.8,0.50,62,3.3,96.1,0.15,95,Height ([2]; rate 1/10×): 10.3 cm; Biomass Reduction ([2]; rate 1/10×): 81.6%; Biomass ([2]; rate 1/10×): 0.63 g; Visual Control ([2]; rate 1/10×): 58%; Height ([2]; rate 1/100×): 25.3 cm; Biomass Reduction ([2]; rate 1/100×): 42.3%; Biomass ([2]; rate 1/100×): 1.98 g; Visual Control ([2]; rate 1/100×): 12%; Visual Control ([2]; rate 1× (normal use rate)): 97%; Height ([2]; rate 1×): 2.3 cm; Biomass Reduction ([2]; rate 1×): 98.3%; Biomass ([2]; rate 1×): 0.06 g; Height ([2]; rate 10×): 0.3 cm; Biomass Reduction ([2]; rate 10×): 97.1%; Biomass ([2]; rate 10×): 0.10 g; Visual Control ([2]; rate 10×): 99%; Height ([2]; rate 100×): 2.3 cm; Biomass Reduction ([2]; rate 100×): 98.3%; Biomass ([2]; rate 100×): 0.06 g; Visual Control ([2]; rate 100×): 95%
